# Test results taken from patent publication US8247211B2, “Glycopeptide antibiotics” (American Cyanamid Company, priority 2001, dated 2012).
# Experiments:
# Assay in all cases: In vitro antibacterial evaluation: minimum inhibitory concentration (MIC), broth dilution method
# Type in all cases: cell-based
# Enterococcus sp. = conditions: 18 hours at 35° C.
# In short: (§1)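 NCCLS M7-A2 broth dilution; Muller-Hinton II […]; 5×10^5 CFU/mL; 64-0.06 μg/mL. MIC = lowest concentration with no growth.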
# Escherichia coli = conditions: 18 hours at 35° C.
# In short: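 First, organisms are seeded at 5×10^5 CFU/mL into Muller-Hinton II […]. Next, antibiotic is applied across 64-0.06 μg/mL by broth dilution (NCCLS M7-A2). Finally, the lowest inhibitory concentration is recorded as MIC.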
# Staphylococcus sp. = system: Staphylococcus sp.
# In short: as §1
# Streptococcus sp. = conditions: 18 hours at 35° C.
# In short: as §1
# [1] = broth dilution, inoculum 5×10^5 CFU/mL
smiles,measurement,setting,value
"CC(c1ccccc1)C1NC(=O)CNC(=O)C(CO)NC(=O)C(C(O)C2CNC(=N)N2C2OC(CO)C(O)C(O)C2O)NC(=O)C(C(O)C2CNC(=N)N2)NC(=O)C(Cc2ccc(OC3OC(CO)C(OC4OC5COC6(CCCCC6(C)C)OC5C(O)C4O)C(O)C3O)cc2)NC1=O (stereo not drawn) [Example 205, Cyclo[glycyl-β-methylphenylalanyl-O-[4-O-[4,6-O-(2,2-dimethylcyclohexylidene)hexopyranosyl]hexopyranosyl]tyrosyl-3-(2-iminoimidazolidin-4-yl)seryl-3-(3-hexopyranosyl-2-iminoimidazolidin-4-yl)serylseryl]]",MIC Enterococcus avium (GC 4558),Enterococcus sp.; Enterococcus avium (GC 4558),4 µg/mL
same,MIC Enterococcus faecalis (ATCC 29212),Enterococcus sp.; Enterococcus faecalis (ATCC 29212),2 µg/mL
same,MIC Enterococcus faecalis (GC 2242),Enterococcus sp.; Enterococcus faecalis (GC 2242),4 µg/mL
same,MIC Enterococcus faecalis (GC 2691),Enterococcus sp.; Enterococcus faecalis (GC 2691),4 µg/mL
same,MIC Enterococcus faecalis (GC 3059),Enterococcus sp.; Enterococcus faecalis (GC 3059),2 µg/mL
same,MIC Enterococcus faecalis (GC 4552),Enterococcus sp.; Enterococcus faecalis (GC 4552),4 µg/mL
same,MIC Enterococcus faecalis (GC 4553),Enterococcus sp.; Enterococcus faecalis (GC 4553),2 µg/mL
same,MIC Enterococcus faecalis (GC 4554),Enterococcus sp.; Enterococcus faecalis (GC 4554),4 µg/mL
same,MIC Enterococcus faecalis (GC 6189),Enterococcus sp.; Enterococcus faecalis (GC 6189),2 µg/mL
same,MIC Enterococcus faecium (GC 2243),Enterococcus sp.; Enterococcus faecium (GC 2243),2 µg/mL
same,MIC Enterococcus faecium (GC 4556),Enterococcus sp.; Enterococcus faecium (GC 4556),2 µg/mL
same,MIC Enterococcus faecium (GC 4557),Enterococcus sp.; Enterococcus faecium (GC 4557),4 µg/mL
same,MIC Enterococcus avium (GC 4558),Enterococcus sp.; [1],4 µg/mL
same,MIC Enterococcus faecalis (ATCC 29212),Enterococcus sp.; [1],2 µg/mL
same,MIC Enterococcus faecalis (GC 2242),Enterococcus sp.; [1],4 µg/mL
same,MIC Enterococcus faecalis (GC 2691),Enterococcus sp.; [1],4 µg/mL
same,MIC Enterococcus faecalis (GC 3059),Enterococcus sp.; [1],2 µg/mL
same,MIC Enterococcus faecalis (GC 4552),Enterococcus sp.; [1],4 µg/mL
same,MIC Enterococcus faecalis (GC 4553),Enterococcus sp.; [1],2 µg/mL
same,MIC Enterococcus faecalis (GC 4554),Enterococcus sp.; [1],4 µg/mL
same,MIC Enterococcus faecalis (GC 6189),Enterococcus sp.; [1],2 µg/mL
same,MIC Enterococcus faecium (GC 2243),Enterococcus sp.; [1],2 µg/mL
same,MIC Enterococcus faecium (GC 4556),Enterococcus sp.; [1],2 µg/mL
same,MIC Enterococcus faecium (GC 4557),Enterococcus sp.; [1],4 µg/mL
same,MIC Escherichia coli (ATCC 25922),Escherichia coli; Escherichia coli (ATCC 25922),64 µg/mL
same,MIC Escherichia coli (GC 4560),Escherichia coli; Escherichia coli (GC 4560),1 µg/mL
same,MIC Staphylococcus aureus (ATCC 29213),Staphylococcus sp.; strain ATCC 29213,2 µg/mL
same,MIC Staphylococcus aureus (GC 1131),Staphylococcus sp.; strain GC 1131,2 µg/mL
same,MIC Staphylococcus aureus (GC 3051),Staphylococcus sp.; strain GC 3051,2 µg/mL
same,MIC Staphylococcus aureus (GC 3053),Staphylococcus sp.; strain GC 3053,2 µg/mL
same,MIC Staphylococcus aureus (GC 4541),Staphylococcus sp.; strain GC 4541,2 µg/mL
same,MIC Staphylococcus aureus (GC 4542),Staphylococcus sp.; strain GC 4542,2 µg/mL
same,MIC Staphylococcus aureus-SMITH (GC 4543),Staphylococcus sp.; strain GC 4543,2 µg/mL
same,MIC Staphylococcus aureus (GC 4544),Staphylococcus sp.; strain GC 4544,2 µg/mL
same,MIC Staphylococcus aureus (GC 4545),Staphylococcus sp.; strain GC 4545,2 µg/mL
same,MIC Staphylococcus haemolyticus (GC 4546),Staphylococcus sp.; strain GC 4546,2 µg/mL
same,MIC Coagulase Negative Staphylococcus (GC 4547),Staphylococcus sp.; strain GC 4547,2 µg/mL
same,MIC Coagulase Negative Staphylococcus (GC 4548),Staphylococcus sp.; strain GC 4548,1 µg/mL
same,MIC Coagulase Negative Staphylococcus (GC 4549),Staphylococcus sp.; strain GC 4549,1 µg/mL
same,MIC Coagulase Negative Staphylococcus (GC 4551),Staphylococcus sp.; strain GC 4551,2 µg/mL
same,MIC Streptococcus agalactiae (GC 4564),Streptococcus sp.; Streptococcus agalactiae (GC 4564),<0.12 µg/mL
same,MIC Streptococcus pneumoniae (ATCC 6301),Streptococcus sp.; Streptococcus pneumoniae (ATCC 6301),<0.12 µg/mL
same,MIC Streptococcus pneumoniae (GC 1894),Streptococcus sp.; Streptococcus pneumoniae (GC 1894),<0.12 µg/mL
same,MIC Streptococcus pneumoniae (GC 4565),Streptococcus sp.; Streptococcus pneumoniae (GC 4565),<0.12 µg/mL
same,MIC Streptococcus pyogenes (GC 4563),Streptococcus sp.; Streptococcus pyogenes (GC 4563),<0.12 µg/mL
same,MIC Streptococcus agalactiae (GC 4564),Streptococcus sp.; [1],<0.12 µg/mL
same,MIC Streptococcus pneumoniae (ATCC 6301),Streptococcus sp.; [1],<0.12 µg/mL
same,MIC Streptococcus pneumoniae (GC 1894),Streptococcus sp.; [1],<0.12 µg/mL
same,MIC Streptococcus pneumoniae (GC 4565),Streptococcus sp.; [1],<0.12 µg/mL
same,MIC Streptococcus pyogenes (GC 4563),Streptococcus sp.; [1],<0.12 µg/mL
